Measurements as given in BigSolDB 2.1.

Nc1ccc(S(=O)(=O)Nc2ncccn2)cc1
solubility (mole fraction)
Settings	278.15 K	283.15 K	288.15 K	293.15 K	298.15 K	303.15 K	308.15 K	313.15 K	318.15 K
in acetonitrile	0.000316	0.000385	0.000465	0.000532	0.000602	0.000666	0.000775	0.000865	0.000935
in methanol	7.1e-05	9.5e-05	0.000132	0.000162	0.000191	0.000236	0.00029	0.00034	0.000384
